The series in a line: collision cross section (DTIM-MS, N2); higher = larger ion. Here is the method:
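Collision cross section (CCS) of drug and natural-product chemical standards (validation set 2, measured in this paper). Three independent measurements were made across 2 months; the value taken is their mean (avg_ccs), for the ion adduct given.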

Take `COc1ccc(CC2c3cc(Oc4cc(CC5c6cc(O)c(OC)cc6CCN5C)ccc4O)c(OC)cc3CCN2C)cc1` (stereo not given) [Isoliensinine]: the collision cross section turned out to be 238.39 Å² (ion adduct: [M+H]+) and 232.33 Å² (ion adduct: [M-H]-).

Consider `O=C(N[C@H](CO)[C@H](O)c1ccc([N+](=O)[O-])cc1)C(Cl)Cl` [Chloramphenicol], for which the collision cross section (ion adduct: [M-H]-) was determined as 166.95 Å².

`COc1ccc(C[C@H]2COC(=O)[C@@H]2Cc2ccc(O[C@@H]3O[C@H](CO)[C@@H](O)[C@H](O)[C@H]3O)c(OC)c2)cc1OC` [Arctiin]: the collision cross section (ion adduct: [M-H]-) was determined as 220.58 Å².

Turning to `C=CCc1cc(OC)c(OC)c(OC)c1` [Elemicin], the collision cross section (ion adduct: [M+H]+) turned out to be 144.76 Å².

`COc1cc2c(cc1OC)C(Cc1ccc(Oc3cc(CC4c5cc(OC)c(OC)cc5CCN4C)ccc3O)cc1)N(C)CC2` (stereo not given) [Dauricine]: the collision cross section reads like this: (ion adduct: [M+H]+) 248.03 Å²; (ion adduct: [M-H]-) 259.6 Å².

Turning to `COc1ccc(CC2c3cc(Oc4cc(CC5c6cc(OC)c(OC)cc6CCN5C)ccc4O)c(OC)cc3CCN2C)cc1` (stereo not given) [Neferine], the collision cross section turned out to be 242.9 Å² (ion adduct: [M+H]+) and 252.96 Å² (ion adduct: [M-H]-).

In turn, `O=C(C=CC=Cc1ccccc1)CCc1ccccc1` [Alnustone] displayed a collision cross section (ion adduct: [M+H]+) of 168.73 Å² and a collision cross section (ion adduct: [M-H]-) of 178.13 Å².

In the case of `CC(C)=CCC[C@](C)(O)[C@H]1CC[C@]2(C)[C@@H]1[C@H](O)C[C@@H]1[C@@]3(C)CC[C@H](O)C(C)(C)[C@@H]3CC[C@]12C` [(20S)-Protopanaxdiol], for the setting “ion adduct: [M-H]-”, the collision cross section is listed as 222.94 Å².

Turning to `C[C@@H]1C/C=C/C=C/C=C/C=C/[C@H](O[C@@H]2O[C@H](C)[C@@H](O)[C@H](N)[C@@H]2O)C[C@@H]2O[C@](O)(C[C@@H](O)C[C@H]3O[C@@H]3/C=C/C(=O)O1)C[C@H](O)[C@H]2C(=O)O` [Pimaricin], the collision cross section (ion adduct: [M+H]+) came to 261.06 Å² and the collision cross section (ion adduct: [M-H]-) came out at 262.32 Å².

`Cn1c(=O)c2[nH]cnc2n(C)c1=O` [Theophylline] registered a collision cross section (ion adduct: [M+H]+) of 137.12 Å².

`CCOC(=O)c1cc2ccccc2oc1=O` [Ethyl coumarin-3-carboxylate] had a collision cross section (ion adduct: [M+H]+) of 141.92 Å².

Consider `CC(C)=CC(=O)OC1Cc2cc3ccc(=O)oc3cc2OC1(C)C` (stereo not given) [Decursin], for which the collision cross section was determined as 185.63 Å² (ion adduct: [M+H]+) and 180.82 Å² (ion adduct: [M-H]-).

Turning to `O=C(Nc1ccccc1)c1ccccc1I` [Benodanil], the collision cross section is 152.62 Å² (ion adduct: [M+H]+) and 156.05 Å² (ion adduct: [M-H]-).

As to `CC(=O)/C=C/c1ccccc1` [trans-4-phenylbut-3-en-2-one], under “ion adduct: [M+H]+”, the collision cross section stood at 131.24 Å².

Regarding `C[C@H]1O[C@@H](O[C@@H]2[C@@H](O)[C@H](O)[C@@H](CO)O[C@H]2c2c(O)cc(O)c3c(=O)cc(-c4ccc(O)cc4)oc23)[C@@H](O)[C@@H](O)[C@@H]1O` [Vitexin-2''-O-rhamnoside], the collision cross section (ion adduct: [M+H]+) is on record as 221.54 Å² and the collision cross section (ion adduct: [M-H]-) was found to be 227.62 Å².

On to `COc1cc(O)cc(/C=C/c2ccc(O)cc2)c1` [Pinostilbene], for which the collision cross section came out at 160.07 Å² (ion adduct: [M+H]+) and 166.26 Å² (ion adduct: [M-H]-).

Regarding `Cn1cncc1[C@@](N)(c1ccc(Cl)cc1)c1ccc2c(c1)c(-c1cccc(Cl)c1)cc(=O)n2C` [Tipifarnib], the collision cross section is, setting by setting: (ion adduct: [M+H]+) 215.34 Å²; (ion adduct: [M-H]-) 215.68 Å².

Regarding `COc1cc(C=CC(=O)NCCc2ccc(O)cc2)ccc1O` [N-trans-Feruloyltyramine], the collision cross section stood at 181.28 Å² (ion adduct: [M+H]+) and 176.36 Å² (ion adduct: [M-H]-).

Under “ion adduct: [M-H]-”, `C[C@H]1[C@H](OC(=O)CCC(=O)O)O[C@@H]2O[C@@]3(C)CC[C@H]4[C@H](C)CC[C@@H]1[C@@]24OO3` [Artesunate] returned a collision cross section of 185.75 Å².

`CC(C)=CCC[C@](C)(O[C@@H]1O[C@H](CO)[C@@H](O)[C@H](O)[C@H]1O)[C@H]1CC[C@]2(C)[C@@H]1[C@H](O)C[C@@H]1[C@@]3(C)CC[C@H](O)C(C)(C)[C@@H]3CC[C@]12C` [Ginsenoside Compound K] registered a collision cross section (ion adduct: [M-H]-) of 257.91 Å².

Molecule `CCCCC[C@H](O)CC(=O)CCc1ccc(O)c(OC)c1` [6-Gingerol] had a collision cross section (ion adduct: [M-H]-) of 170.04 Å².

Regarding `O=C(Nc1ccc(O)cc1)c1ccccc1O` [Osalmid], the collision cross section runs as follows: (ion adduct: [M+H]+) 151.37 Å²; (ion adduct: [M-H]-) 150.88 Å².

On to `O=C(O)C1=CO[C@@H](O[C@@H]2O[C@H](CO)[C@@H](O)[C@H](O)[C@H]2O)[C@@H]2C(CO)=CC[C@H]12` [Geniposidic acid], for which, where the note is “ion adduct: [M-H]-”, the collision cross section was 184.17 Å².

`COc1ccc2c(c1)c(CC(=O)O)c(C)n2C(=O)c1ccc(Cl)cc1` [Indometacin]: the collision cross section (ion adduct: [M+H]+) came out at 181.26 Å².

With `N#C[C@H](O[C@@H]1O[C@H](CO[C@@H]2O[C@H](CO)[C@@H](O)[C@H](O)[C@H]2O)[C@@H](O)[C@H](O)[C@H]1O)c1ccccc1` [Amygdalin], the collision cross section runs as follows: (ion adduct: [M+H]+) 214.69 Å²; (ion adduct: [M-H]-) 205.69 Å².

With `Cc1noc(NS(=O)(=O)c2ccc(N)cc2)c1C` [Sulfisoxazole], the collision cross section by setting is: (ion adduct: [M+H]+) 162.69 Å²; (ion adduct: [M-H]-) 162.87 Å².

As to `CC(C)(C)[C@]1(O)C[C@@H]2OC(=O)C[C@@]23C(=O)O[C@@H]2OC(=O)[C@H](O)[C@]213` [(-)-Bilobalide], the collision cross section (ion adduct: [M-H]-) is on record as 162.4 Å².

Regarding `CNC[C@H](O)[C@@H](O)[C@H](O)[C@H](O)CO` [Meglumine], the collision cross section by setting is: (ion adduct: [M+H]+) 141.05 Å²; (ion adduct: [M-H]-) 139.8 Å².

`COC(=O)C1=CO[C@@H](O[C@@H]2O[C@H](CO)[C@@H](O)[C@H](O)[C@H]2O)[C@H]2[C@@H]1[C@H](O)C[C@]2(C)OC(C)=O` [8-O-Acetylshanzhiside methyl ester]: the collision cross section (ion adduct: [M-H]-) came to 208.19 Å².

`C/C=C1/[C@H](O[C@@H]2O[C@H](CO)[C@@H](O)[C@H](O)[C@H]2O)OC=C(C(=O)OC)[C@H]1CC(=O)OCCc1ccc(O)c(O)c1` [Oleuropein]: the collision cross section (ion adduct: [M-H]-) worked out at 217.92 Å².

The molecule `CCCCCCCCCCCCCCCc1cccc(O)c1C(=O)O` [Ginkgolic<U+00A0>Acid<U+00A0>C15:0<U+00A0>] yielded a collision cross section (ion adduct: [M-H]-) of 190.92 Å².

On to `O=C(O)c1ccccc1O` [Salicylic acid], for which the collision cross section (ion adduct: [M-H]-) is recorded as 121.24 Å².

The molecule `CCOC(=O)c1ccc(O)c(OC)c1` [Ethyl Vanillate] showed a collision cross section (ion adduct: [M-H]-) of 144.12 Å².

Consider `NC(=O)c1ncn([C@@H]2O[C@H](CO)[C@@H](O)[C@H]2O)c1O` [Mizoribine], for which the collision cross section (ion adduct: [M-H]-) is 155.14 Å².

For the setting “ion adduct: [M-H]-”, `CCCCCCCCC[C@H](O)CC(=O)CCc1ccc(O)c(OC)c1` [10-Gingerol] gave a collision cross section of 188 Å².

Consider `COc1ccc(-c2cc(=O)c3c(O)cc(O)c(-c4cc(-c5cc(=O)c6c(O)cc(OC)cc6o5)ccc4OC)c3o2)cc1` [Sciadopitysin], for which the collision cross section reads like this: (ion adduct: [M+H]+) 235.37 Å²; (ion adduct: [M-H]-) 235.5 Å².

Molecule `Nc1[nH]c(=O)ncc1F` [Fluorocytosine] came in with a collision cross section (ion adduct: [M+H]+) of 119.97 Å².

On to `Nc1nc(N)nc(NC2CC2)n1` [Cyromazine], for which, for the setting “ion adduct: [M+H]+”, the collision cross section was found to be 135.92 Å².

The molecule `O=C1CCc2ccccc2O1` [Hydrocoumarin] came in with a collision cross section (ion adduct: [M-H]-) of 127.47 Å².

As for `CC(=O)Nc1nnc(S(N)(=O)=O)s1` [Acetazolamide], the collision cross section came out at 142.71 Å² (ion adduct: [M+H]+) and 138.64 Å² (ion adduct: [M-H]-).

With `O=C1C[C@@H](c2ccc(O)cc2)Oc2cc(O)ccc21` [Liquiritigenin], the collision cross section by setting is: (ion adduct: [M+H]+) 162 Å²; (ion adduct: [M-H]-) 161.75 Å².

With `O=C(C=Cc1ccc(O)c(O)c1)OC1CC(O)(C(=O)O)CC(O)C1OC(=O)C=Cc1ccc(O)c(O)c1` (stereo not given) [4,5-Dicaffeoylquinic acid], the collision cross section (ion adduct: [M-H]-) is 213.46 Å².

`COc1cc(C(=O)O)cc(OC)c1O` [Syringic acid]: the collision cross section (ion adduct: [M-H]-) was 148.59 Å².

Where the note is “ion adduct: [M-H]-”, `CC=Cc1ccc(O)c(OC)c1` [Isoeugenol] had a collision cross section of 138.02 Å².

Consider `O=C(Nc1nc(-c2ccc(O)c(O)c2)c(-c2ccccc2)s1)c1ccc(O)c(O)c1` [COH29], for which the collision cross section is listed as 207.91 Å² (ion adduct: [M+H]+) and 200.74 Å² (ion adduct: [M-H]-).

As to `COc1cc(CCC(=O)CC(=O)CCc2ccc(O)c(OC)c2)ccc1O` [Tetrahydrocurcumin], the collision cross section (ion adduct: [M-H]-) turned out to be 185.55 Å².

In turn, `COc1cc2c3c(c1OC)-c1ccccc1C[C@H]3N(C)CC2` [Nuciferine] yielded a collision cross section (ion adduct: [M+H]+) of 172.41 Å².

As for `C[C@H]1CC[C@]2(OC1)O[C@H]1C[C@H]3[C@@H]4CC=C5C[C@@H](O[C@@H]6O[C@H](CO)[C@@H](O[C@@H]7O[C@@H](C)[C@H](O)[C@@H](O)[C@H]7O)[C@H](O)[C@H]6O[C@@H]6O[C@@H](C)[C@H](O)[C@@H](O)[C@H]6O)CC[C@]5(C)[C@H]4CC[C@]3(C)[C@H]1[C@@H]2C` [Dioscin], the collision cross section was found to be 330.49 Å² (ion adduct: [M+H]+) and 324.15 Å² (ion adduct: [M-H]-).

`C=C(C)[C@H]1Cc2c(ccc3c2O[C@@H]2COc4cc(OC)c(OC)cc4[C@@H]2C3=O)O1` [Rotenone] returned a collision cross section (ion adduct: [M+H]+) of 195.49 Å² and a collision cross section (ion adduct: [M-H]-) of 198.71 Å².

For the setting “ion adduct: [M-H]-”, `Oc1c(Cl)cc(Cl)cc1Sc1cc(Cl)cc(Cl)c1O` [Bithionol] showed a collision cross section of 169.35 Å².

On to `CCC(=O)c1ccc(O)cc1` [Vanatone], for which the collision cross section is 130 Å² (ion adduct: [M+H]+) and 131.83 Å² (ion adduct: [M-H]-).

Consider `COc1ccc(CCC(=O)c2c(O)cc(O[C@@H]3O[C@H](CO)[C@@H](O)[C@H](O)[C@H]3O[C@@H]3O[C@@H](C)[C@H](O)[C@@H](O)[C@H]3O)cc2O)cc1O` [Neosperidin dihydrochalcone], for which, under “ion adduct: [M+H]+”, the collision cross section is 233.96 Å².

Turning to `COc1cc(CCC(C)=O)ccc1O` [Zingerone], for the setting “ion adduct: [M-H]-”, the collision cross section is 146.57 Å².
